The test system of one assay is D. immitis microfilariae. Nature of the assay: Dirofilaria immitis, microfilariae (DiMF) in vitro motility assay. The class given is cell-based. The conditions noted are these: for minimal effective concentration: Dirofilaria immitis, 72 h, read-out: DiMF minimally effective dose (MEC).
For assay [1], the system named is Trichostrongylus colubriformis. Nature of the assay: Jird efficacy model. The format is in vivo. The following applies: for inhibition in vivo at 10 mg/kg: Trichostrongylus colubriformis, sc, 96 h, read-out: Jird % (percentage efficacy).
The subject of a further assay is Haemonchus contortus L3. Kind of assay: microbe, parasite or virus in culture. The class given is cell-based. The following applies: for minimal effective concentration: Haemonchus contortus, 96 h, read-out: HcL3 Minimal Effective Concentration (MEC).

The results in this text go back to patent US10570129B2 (Zoetis Services LLC, priority 2015, dated 2020).

As to `O=C(NCc1ccnc(F)c1)n1c2c(c3c(Cl)cccc31)CN(C/C=C/c1ccc(Cl)cc1)CC2` [Example 230, (E)-9-chloro-2-(3-(4-chlorophenyl)allyl)-N-((2-fluoropyridin-4-yl)methyl)-1,2,3,4-tetrahydro-5H-pyrido[4,3-b]indole-5-carboxamide], the minimal effective concentration with D. immitis microfilariae was determined as 10 µM; in the assay on Haemonchus contortus L3, 1.8 µM. Moreover, the inhibition in vivo at 10 mg/kg in assay [1] stood at 100%.
In the same order, the values of `CS(=O)(=O)c1ccc2c(c1)c1c(n2C(=O)NCc2ccnc(Cl)c2)CCN(C/C=C/c2ccc(F)cc2)C1` [Example 459, (E)-N-((2-chloropyridin-4-yl)methyl)-2-(3-(4-fluorophenyl)allyl)-8-(methylsulfonyl)-1,2,3,4-tetrahydro-5H-pyrido[4,3-b]indole-5-carboxamide] are 5.7 µM, 1 µM and 92%.
Regarding `O=C(NCc1ccnc(Cl)c1)n1c2c(c3ccc(C(F)(F)F)cc31)CN(C/C=C/c1ccc(Cl)cc1)CC2` [Example 156, (E)-2-(3-(4-chlorophenyl)allyl)-N-((2-chloropyridin-4-yl)methyl)-7-(trifluoromethyl)-1,2,3,4-tetrahydro-5H-pyrido[4,3-b]indole-5-carboxamide], the minimal effective concentration is 33 µM in the assay with D. immitis microfilariae and 0.5 µM in the assay with Haemonchus contortus L3. Besides, in assay [1], the inhibition in vivo at 10 mg/kg came out at 99%.
In the same order, the values of `N#Cc1ccc2c(c1)c1c(n2C(=O)NCc2ccnc(F)c2)CCN(C/C=C/c2ccc(F)cc2)C1` [Example 123, (E)-8-cyano-2-(3-(4-fluorophenyl)allyl)-N-((2-fluoropyridin-4-yl)methyl)-1,2,3,4-tetrahydro-5H-pyrido[4,3-b]indole-5-carboxamide] are 10 µM, 0.3 µM and 100%.
The corresponding values for `O=C(NCc1ccnc(Cl)c1)n1c2c(c3ccc(OC(F)(F)F)cc31)CN(C/C=C/c1ccc(F)c(F)c1)CC2` [Example 349, (E)-N-((2-chloropyridin-4-yl)methyl)-2-(3-(3,4-difluorophenyl)allyl)-7-(trifluoromethoxy)-1,2,3,4-tetrahydro-5H-pyrido[4,3-b]indole-5-carboxamide] are 10 µM, 1 µM and 99%.
The corresponding values for `O=C(NCc1ccnc(Cl)c1)n1c2c(c3ccc(OC(F)(F)F)cc31)CN(C/C=C/c1ccc(F)cc1)CC2` [Example 356, (E)-N-((2-chloropyridin-4-yl)methyl)-2-(3-(4-fluorophenyl)allyl)-7-(trifluoromethoxy)-1,2,3,4-tetrahydro-5H-pyrido[4,3-b]indole-5-carboxamide] are 3.8 µM, 0.6 µM and 100%.
Turning to `N#Cc1ccc(/C=C/CN2CCc3c(c4cc(OC(F)(F)F)ccc4n3C(=O)NCc3ccnc(Cl)c3)C2)cc1` [Example 390, (E)-N-((2-chloropyridin-4-yl)methyl)-2-(3-(4-cyanophenyl)allyl)-8-(trifluoromethoxy)-1,2,3,4-tetrahydro-5H-pyrido[4,3-b]indole-5-carboxamide], the minimal effective concentration in the assay with D. immitis microfilariae was 18.2 µM; in the assay on Haemonchus contortus L3, 0.5 µM. Moreover, in assay [1], the inhibition in vivo at 10 mg/kg came to 100%.
In the same order, the values of `O=C(NCc1ccnc(F)c1)n1c2c(c3ccc(OC(F)(F)F)cc31)CN(C/C=C/c1ccc(F)cc1F)CC2` [Example 374, (E)-2-(3-(2,4-difluorophenyl)allyl)-N-((2-fluoropyridin-4-yl)methyl)-7-(trifluoromethoxy)-1,2,3,4-tetrahydro-5H-pyrido[4,3-b]indole-5-carboxamide] are 5.7 µM, 5.7 µM and 72%.
In the same order, the values of `N#Cc1cc(/C=C/CN2CCc3c(c4ccc(OC(F)(F)F)cc4n3C(=O)NCc3ccnc(Cl)c3)C2)ccc1F` [Example 344, (E)-N-((2-chloropyridin-4-yl)methyl)-2-(3-(3-cyano-4-fluorophenyl)allyl)-7-(trifluoromethoxy)-1,2,3,4-tetrahydro-5H-pyrido[4,3-b]indole-5-carboxamide] are 10 µM, 0.5 µM and 100%.
With `N#Cc1ccc2c3c(n(C(=O)NCc4ccnc(Cl)c4)c2c1)CCN(C/C=C/c1ccc(Cl)cc1Cl)C3` [Example 3, (E)-N-[(2-chloro-4-pyridyl)methyl]-7-cyano-2-[(E)-3-(2,4-dichlorophenyl)allyl]-3,4-dihydro-1H-pyrido[4,3-b]indole-5-carboxamide], the “DiMF minimally effective dose (MEC)” value with D. immitis microfilariae (decrease in microfilariae motility by subjective visual assessment, observed at 72 hours) came out at 18.2 µM. Further, in assay [1] (Mongolian gerbil (jird) infected with T. colubriformis, 10 mg/kg subcutaneous, worm count approximately four days after dosing), the “Jird % (percentage efficacy)” value is listed as 99%. In the assay on Haemonchus contortus L3, the “HcL3 Minimal Effective Concentration (MEC)” value was determined as 1.0 µM.
`O=C(NCc1ccnc(F)c1)n1c2c(c3cc(C(F)(F)F)ccc31)CN(C/C=C/c1ccc(F)c(F)c1)CC2` [Example 419, (E)-2-(3-(3,4-difluorophenyl)allyl)-N-((2-fluoropyridin-4-yl)methyl)-8-(trifluoromethyl)-1,2,3,4-tetrahydro-5H-pyrido[4,3-b]indole-5-carboxamide]: the minimal effective concentration in the assay on D. immitis microfilariae stood at 10 µM; in the assay on Haemonchus contortus L3, 1 µM. Also, the inhibition in vivo at 10 mg/kg in assay [1] was 100%.
In the same order, the values of `N#Cc1ccc2c3c(n(C(=O)NCc4ccnc(Cl)c4)c2c1)CCN(C/C=C/c1cccc(F)c1F)C3` [Example 32, (E)-N-((2-chloropyridin-4-yl)methyl)-7-cyano-2-(3-(2,3-difluorophenyl)allyl)-1,2,3,4-tetrahydro-5H-pyrido[4,3-b]indole-5-carboxamide] are 18.2 µM, 1.8 µM and 100%.
The corresponding values for `O=C(NCc1ccnc(Cl)c1)n1c2c(c3cc(F)c(Cl)cc31)CN(C/C=C/c1ccc(F)cc1)CC2` [Example 306, (E)-7-chloro-N-((2-chloropyridin-4-yl)methyl)-8-fluoro-2-(3-(4-fluorophenyl)allyl)-1,2,3,4-tetrahydro-5H-pyrido[4,3-b]indole-5-carboxamide] are 12.7 µM, 0.5 µM and 98%.
The corresponding values for `O=C(NCc1cnc(Cl)s1)n1c2c(c3cc4c(cc31)COC4)CN(C/C=C/c1ccc(Cl)cc1)CC2` [Example 489, (E)-8-(3-(4-chlorophenyl)allyl)-N-((2-chlorothiazol-5-yl)methyl)-1,3,6,7,8,9-hexahydro-5H-furo[3,4-f]pyrido[4,3-b]indole-5-carboxamide] are 3.3 µM, 3.3 µM and 100%.
As to `N#Cc1ccc(/C=C/CN2CCc3c(c4ccc(C(F)(F)F)cc4n3C(=O)NCc3ccnc(F)c3)C2)cc1` [Example 164, (E)-2-(3-(4-cyanophenyl)allyl)-N-((2-fluoropyridin-4-yl)methyl)-7-(trifluoromethyl)-1,2,3,4-tetrahydro-5H-pyrido[4,3-b]indole-5-carboxamide], the results for the minimal effective concentration in the assay on D. immitis microfilariae and with Haemonchus contortus L3 were 10 µM and 3.3 µM, respectively. In assay [1], the inhibition in vivo at 10 mg/kg came out at 100%.
The corresponding values for `N#Cc1ccc2c3c(n(C(=O)NCc4ccnc(Cl)c4)c2c1)CCN(C/C=C/c1ccc(F)c(F)c1F)C3` [Example 13, (E)-N-((2-chloropyridin-4-yl)methyl)-7-cyano-2-(3-(2,3,4-trifluorophenyl)allyl)-1,2,3,4-tetrahydro-5H-pyrido[4,3-b]indole-5-carboxamide] are 10 µM, 1.8 µM and 100%.
The corresponding values for `O=C(NCc1ccnc(Cl)c1)n1c2c(c3cc(OC(F)(F)F)ccc31)CN(C/C=C/c1ccc(Cl)cc1)CC2` [Example 391, (E)-2-(3-(4-chlorophenyl)allyl)-N-((2-chloropyridin-4-yl)methyl)-8-(trifluoromethoxy)-1,2,3,4-tetrahydro-5H-pyrido[4,3-b]indole-5-carboxamide] are 32.1 µM, 1 µM and 100%.
In the same order, the values of `O=C(NCc1ccnc(Cl)c1)n1c2c(c3cc(Cl)c(Cl)cc31)CN(C/C=C/c1ccc(F)cc1)CC2` [Example 282, (E)-7,8-dichloro-N-((2-chloropyridin-4-yl)methyl)-2-(3-(4-fluorophenyl)allyl)-1,2,3,4-tetrahydro-5H-pyrido[4,3-b]indole-5-carboxamide] are 3.3 µM, 0.3 µM and 100%.
Take `N#Cc1ccc2c3c(n(C(=O)NCc4ccnc(Cl)c4)c2c1)CCN(C/C=C/c1cc(F)cc(F)c1)C3` [Example 30, (E)-N-((2-chloropyridin-4-yl)methyl)-7-cyano-2-(3-(3,5-difluorophenyl)allyl)-1,2,3,4-tetrahydro-5H-pyrido[4,3-b]indole-5-carboxamide]: the minimal effective concentration in the assay with D. immitis microfilariae stood at 10 µM; in the assay on Haemonchus contortus L3, 0.5 µM. Besides, the inhibition in vivo at 10 mg/kg in assay [1] amounted to 100%.
Consider `N#Cc1ccc2c3c(n(C(=O)NCc4ccnc(Cl)c4)c2c1)CCN(C/C=C/c1ccc(Cl)cc1F)C3` [Example 7, (E)-2-(3-(4-chloro-2-fluorophenyl)allyl)-N-((2-chloropyridin-4-yl)methyl)-7-cyano-1,2,3,4-tetrahydro-5H-pyrido[4,3-b]indole-5-carboxamide], for which the figures for the minimal effective concentration in the assay with D. immitis microfilariae and in the assay with Haemonchus contortus L3 were 10 µM and 2.4 µM, respectively. The inhibition in vivo at 10 mg/kg in assay [1] turned out to be 100%.
